Like-named read-outs stand apart in the source and are kept apart here.
Legend:
U937 cells = test: Cell growth inhibitory effect, U937 cells (Cell counting Kit-8, 72 hours); type: cell-based; conditions: Homo sapiens, U-937, BCR-ABL negative U937 cells, WST-8 absorbance
Description: The plate was incubated in a CO2 incubator overnight. […] The plate was incubated in a CO2 incubator. After 72 hours, 20 μl

K562 cells = test: Cell growth inhibitory effect, K562 cells (Cell counting Kit-8, 72 hours); conditions: for IC50: Homo sapiens, K562, 72 h, read-out: K562 cells (IC50 value: μM); for Ratio (U937 cells/K562 cells): IC50 U937 cells / IC50 K562 cells;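 on all read-outs here: Read-out is formazan absorbance at 450 nm from WST-8 reduction after a 3 h color reaction, with K562 and U937 cells grown in 96-well plates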
Description: of Cell counting Kit-8 (5 mmol/l WST-8, 0.2 mmol/1 1-Methoxy PMS, 150 mmol/l NaCl) (manufactured by Dojindo) was added to each well. After reaction for color development in a CO2 incubator for 3 hours, an absorbance of formazan, generated by reduction of WST-8 was determined at 450 nm using Multi-level counter ARVOsx (manufactured by Wallac).
K562 cells and U937 cells (purchased from American Type Culture Collection) were cultured in a RPMI-1640 medium (manufactured by Sigma) containing 10% (v/v) fetal calf serum (FCS) (manufactures by Sigma) (RPMI-1640/FCS). K562 cells and U937 cells were seeded at a density of 5000 cells/100 μl/well and 4000 cells/100 μl/well in each of 96-hole-plate (manufactured by costar), respectively. The plate was incubated in a CO2 incubator overnight. […] The resulting solution was diluted 500 times in a RPMI-1640/FCS medium and then 100 μl of the diluent was added in a well. The plate was incubated in a CO2 incubator. After 72 hours, 20 μl

[1] = continuation of Table 3, read-out: U937 cells (IC50 value: nμM)
[2] = read-out: U937 cells (IC50 value: μM)

| SMILES | IC50 (U937 cells; [1]) | melting point | IC50 (K562 cells) | Ratio (U937 cells/K562 cells) (K562 cells) | IC50 (U937 cells; [2]) |
| --- | --- | --- | --- | --- | --- |
| Cc1ccc(NC(=O)c2ccc(CN3CCN(C)CC3)c(Cl)c2)cc1Nc1nccc(-c2cncnc2)n1.Cl [Example 20, 3-chloro-4-(4-methylpiperazin-1-ylmethyl)-N-{4-methyl-3-[4-(5-pyrimidinyl)pyrimidin-2-ylamino]phenyl}benzamide hydrochloride] | 29 µM | 197 to 200 °C | 0.0026 µM | 11154 |  |
| CCN1CCN(Cc2ccc(C(=O)Nc3ccc(C)c(Nc4nccc(-c5cncnc5)n4)c3)cc2C(F)(F)F)CC1.Cl [Example 16, 4-(4-ethylpiperazin-1-ylmethyl)-3-trifluoromethyl-N-{4-methyl-3-[4-(5-pyrimidinyl)pyrimidin-2-ylamino]phenyl}benzamide hydrochloride] |  | 256 to 259 °C (dec.) | 0.0011 µM | 3727 | 4.1 µM |
| Cc1ccc(NC(=O)c2ccc(CN3C[C@@H](N(C)C)C[C@H]3C)c(C(F)(F)F)c2)cc1Nc1nccc(-c2cncnc2)n1.Cl [Example 60, (−)-4-[(2R,4S)-4-(dimethylamino)-2-methylpyrrolidin-1-ylmethyl]-3-trifluoromethyl-N-{4-methyl-3-[4-(5-pyrimidinyl)pyrimidin-2-ylamino]phenyl}benzamide hydrochloride] | 4 µM | 188 to 193 °C | 0.005 µM | 800 |  |
| COc1cc(C(=O)Nc2ccc(C)c(Nc3nccc(-c4cncc(Br)c4)n3)c2)ccc1CN1CCN(C)CC1.Cl [Example 14, 3-methoxy-4-(4-methylpiperazin-1-ylmethyl)-N-{3-[4-(5-bromopyridin-3-yl)pyrimidin-2-ylamino]-4-methylphenyl}benzamide hydrochloride] |  | 168 to 169 °C (dec.) | 0.0079 µM | 253 | 2 µM |
| Cc1ccc(NC(=O)c2ccc(CN3CCN(C)CC3)c(C(F)(F)F)c2)cc1Nc1nc(-c2ccncc2)cs1.Cl [Example 75, 4-(4-methylpipiperazin-1-ylmethyl)-3-trifluoromethyl-N-{4-methyl-3-[4-(4-pyridyl)thiazol-2-ylamino]phenyl}benzamide hydrochloride] | 2.7 µM | 186 to 188 °C | 0.0059 µM | 458 |  |
| Cc1ccc(NC(=O)c2ccc(C=C3CCN(C)CC3)c(C(F)(F)F)c2)cc1Nc1nccc(-c2cncnc2)n1.Cl [Example 6, 4-(1-methylpiperidin-4-ylidenemethyl)-3-trifluoromethyl-N-{4-methyl-3-[4-(5-pyrimidinyl)pyrimidin-2-ylamino]phenyl}benzamide hydrochloride] |  | 202 to 206 °C (dec.) | 0.0012 µM | 3583 | 4.3 µM |
| CCN1CCN(Cc2ccc(C(=O)Nc3ccc(C)c(Nc4cc(-c5cncnc5)ccn4)c3)cc2C(F)(F)F)CC1.Cl [Example 25, 4-(4-ethylpiperazin-1-ylmethyl)-3-trifluoromethyl-N-{4-methyl-3-[4-(5-pyrimidinyl)pyridin-2-ylamino]phenyl}benzamide hydrochloride] | 3.8 µM | 254 to 256 °C (dec.) | 0.0018 µM | 2111 |  |
| Cc1ccc(NC(=O)c2ccc(CN3CC(CN(C)C)C3)c(C(F)(F)F)c2)cc1Nc1nccc(-c2cncnc2)n1.Cl [Example 54, 4-[3-(dimethylaminomethyl)azetidin-1-ylmethyl]-3-trifluoromethyl-N-{4-methyl-3-[4-(5-pyrimidinyl)pyrimidin-2-ylamino]phenyl}benzamide hydrochloride] | 16 µM | 142 to 152 °C (dec.) | 0.0096 µM | 1667 |  |
| Cc1ccc(NC(=O)c2ccc(CN3CCN(CCF)CC3)c(C(F)(F)F)c2)cc1Nc1nccc(-c2cncnc2)n1.Cl [Example 35, 4-[4-(2-fluoroethyl)piperazin-1-ylmethyl]-3-trifluoromethyl-N-{4-methyl-3-[4-(5 yrimidinyl)pyrimidin-2-ylamino]phenyl}benzamide hydrochloride] | 11 µM | 213 to 233 °C (dec.) | 0.0034 µM | 3235 |  |
| Cc1ccc(NC(=O)c2ccc(CN3CCN(C)CC3)c(C(F)(F)F)c2)cc1Nc1cc(-c2cncnc2)ncn1.Cl [Example 33, 4-(1-methylpiperazin-4-ylmethyl)-3-trifluoromethyl-N-{4-methyl-3-[6-(5-pyrimidinyl)pyrimidin-4-ylamino]phenyl}benzamide hydrochloride] | 11 µM | 203 to 207 °C (dec.) | 0.0084 µM | 1310 |  |
| Cc1ccc(NC(=O)c2ccc(CN3CC(N(C)C)C3)c(C(F)(F)F)c2)cc1Nc1nccc(-c2cncnc2)n1.Cl [Example 77, 4-[3-(dimethylamino)azetidin-1-ylmethyl]-3-trifluoromethyl-N-{4-methyl-3-[4-(5-pyrimidinyl)pyrimidin-2-ylamino]phenyl}benzamide hydrochloride] | > 100 µM | 159 to 167 °C (dec.) | 0.018 µM | >13699 |  |
| Cc1ccc(NC(=O)c2ccc(CN3CCN(C)[C@@H](C)C3)c(C(F)(F)F)c2)cc1Nc1nccc(-c2cncnc2)n1.Cl [Example 69, (−)-4-((S)-3,4-dimethylpiperazin-1-ylmethyl)-3-trifluoromethyl-N-{4-methyl-3-[4-(5-pyrimidinyl)pyrimidin-2-ylamino]phenyl}benzamide hydrochloride] | 10 µM | 187 to 193 °C | 0.0022 µM | 4545 |  |
| Cc1ccc(NC(=O)c2cc(Cl)c(CN3CC[C@H](N(C)C)C3)c(Cl)c2)cc1Nc1nccc(-c2cncnc2)n1.Cl [Example 12, (−)-3,5-dichloro-4-[(S)-3-(dimethylamino)pyrrolidin-1-ylmethyl]-N-{4-methyl-3-[4-(5-pyrimidinyl)pyrimidin-2-ylamino]phenyl}benzamide hydrochloride] |  | 161 to 170 °C (dec.) | 0.0056 µM | 839 | 4.7 µM |
| Cc1ccc(NC(=O)c2ccc(CN3CCC[C@H](N)C3)c(C(F)(F)F)c2)cc1Nc1nccc(-c2cncnc2)n1.Cl [Example 62, (+)-4-((S)-3-aminopiperidinomethyl)-3-trifluoromethyl-N-{4-methyl-3-[4-(5-pyrimidinyl)pyrimidin-2-ylamino]phenyl}benzamide hydrochloride] | 1.6 µM | 193 to 199 °C | 0.0014 µM | 1143 |  |
| Cc1ccc(NC(=O)c2ccc(CN3CC[C@@H](CN(C)C)C3)c(C(F)(F)F)c2)cc1Nc1nccc(-c2cncnc2)n1.Cl [Example 81, 4-[(S)-3-(dimethylaminomethyl)pyrrolidin-1-ylmethyl]-3-trifluoromethyl-N-{4-methyl-3-[4-(5-pyrimidinyl)pyrimidin-2-ylamino]phenyl}benzamide hydrochloride] | > 100 µM | 114 to 122 °C (dec.) | 0.0047 µM | >27778 |  |
| Cc1ccc(NC(=O)c2ccc(CN3CCC[C@H](N(C)C)C3)c(C(F)(F)F)c2)cc1Nc1nccc(-c2cncnc2)n1.Cl [Example 64, (+)-4-[(S)-3-(dimethylamino)piperidinomethyl]-3-trifluoromethyl-N-{4-methyl-3-[4-(5-pyrimidinyl)pyrimidin-2-ylamino]phenyl}benzamide hydrochloride] | 3.7 µM | 195 to 198 °C | 0.0043 µM | 860 |  |
| CCN(CC)[C@H]1CCN(Cc2ccc(C(=O)Nc3ccc(C)c(Nc4nccc(-c5cncnc5)n4)c3)cc2C(F)(F)F)C1.Cl [Example 57, (−)-4-[(S)-3-(N,N-diethylamino)pyrrolidin-1-ylmethyl]-3-trifluoromethyl-N-{4-methyl-3-[4-(5-pyrimidinyl)pyrimidin-2-ylamino]phenyl}benzamide hydrochloride] | 5.6 µM | 200 to 202 °C | 0.0058 µM | 966 |  |
| CCN1CCN(Cc2ccc(C(=O)Nc3ccc(C)c(Nc4nccc(-c5cncc(Br)c5)n4)c3)cc2C(F)(F)F)CC1.Cl [Example 18, 4-(4-ethylpiperazin-1-ylmethyl)-3-trifluoromethyl-N-{3-[4-(5-bromopyridin-3-yl)pyrimidin-2-ylamino]-4-methylphenyl}benzamide hydrochloride] |  | 166 to 172 °C (dec.) | 0.0048 µM | 958 | 4.6 µM |
| Cc1ccc(NC(=O)c2ccc(CN3CCN(C)CC3)c(C(F)(F)F)c2)cc1Nc1cc(-c2cncnc2)ccn1.Cl [Example 23, 4-(4-methylpiperazin-1-ylmethyl)-3-trifluoromethyl-N-{4-methyl-3-[4-(5-primidinyl)pyridin-2-ylamino]phenyl}benzamide hydrochloride] | 5 µM | 203 to 206 °C (dec.) | 0.0011 µM | 4545 |  |
| Cc1ccc(NC(=O)c2ccc(CN3CCN(Cc4oc(=O)oc4C)CC3)c(C(F)(F)F)c2)cc1Nc1nccc(-c2cncnc2)n1.Cl [Example 73, 4-{4-[(5-methyl-2-oxo-1,3-dioxol-4-yl)methyl]piperazin-1-ylmethyl}-3-trifluoromethyl-N-{4-methyl-3-[4-(5-pyrimidinyl)pyrimidin-2-ylamino]phenyl}benzamide hydrochloride] | 9.7 µM | 218 to 226 °C (dec.) | 0.0023 µM | 4217 |  |

Reference: patent US7728131B2, “Amide derivative and medicine” (Nippon Shinyaku Co., Ltd., priority 2003, dated 2010)
